Like-named read-outs stand apart in the source and are kept apart here. Marks after values point to notes of the source that are not given here.
Tests used:
[1] = test system: Plasmopara viticola; assay: Test D: grape downy mildew, spray after inoculation of grape seedlings; format: in vivo; settings: 200 ppm; for pest or weed control at 200 ppm: Plasmopara viticola, 168 h, read-out: Test D disease control rating
Text: Upon removal, disease ratings were made. […] A dash (-) indicates no test results.

[2] = test system: Septoria tritici; assay: Test J: wheat leaf blotch, preventive spray on wheat seedlings; format: in vivo
Text: A dash (-) indicates no test results.

[3] = test system: Puccinia recondita f. sp. tritici; assay: Test K: wheat leaf rust, preventive spray on wheat seedlings
[4] = test system: Colletotrichum orbiculare; assay: Test B: cucumber Colletotrichum anthracnose, preventive spray on cucumber seedlings; settings: for pest or weed control at 200 ppm: read-out: Test B disease control rating, 200 ppm
[5] = test system: fusarium graminearium; assay: Test I: wheat head scab, preventive spray on wheat seedlings; settings: for Test I disease control rating: 200 ppm; for pest or weed control at 200 ppm: Fusarium, in Triticum aestivum, topical, 192 h, read-out: Test I disease control rating, 200 ppm
Method: (the causal agent of wheat head scab) and incubated in a saturated atmosphere at 20° C. for 72 h, and then moved to a growth chamber at 22° C. for 5 days, after which disease ratings were made.

[6] = test system: Erysiphe graminis f. sp. tritici; assay: Test L: wheat powdery mildew, preventive spray on wheat seedlings; settings: for pest or weed control at 200 ppm: read-out: Test L disease control rating, 200 ppm
[7] = test system: Septoria nodorum; assay: Test H: wheat glum blotch, preventive spray on wheat seedlings; settings: for pest or weed control at 200 ppm: read-out: Test H disease control rating, 200 ppm
Method: (the causal agent of wheat glum blotch) and incubated in a saturated atmosphere at 20° C. for 48 h, and then moved to a growth chamber at 22° C. for 5 days, after which disease ratings were made.

[8] = test system: Pythium aphanidermatum; assay: Test A: bluegrass pythium blight, preventive spray on bluegrass seedlings; settings: for Test A disease control rating: 200 ppm; for pest or weed control at 200 ppm: Pythium aphanidermatum, 120 h, read-out: Test A disease control rating
[9] = test system: Rhizoctonia oryzae; assay: Test G: turf brown patch, preventive spray on creeping bent grass seedlings; settings: for pest or weed control at 200 ppm: read-out: Test G disease control rating, 200 ppm
Method: (the causal agent of turf brown patch) and incubated in a saturated atmosphere at 27° C. for 24 h, and then moved to a growth chamber at 27° C. for 5 days, after which disease ratings were made.

[10] = test system: Phytophthora infestans; assay: whole plant or invertebrate; format: in vivo; settings: for Test F disease control rating: 200 ppm; for pest or weed control at 200 ppm: Phytophthora infestans, in Solanum lycopersicum, topical, 144 h, read-out: Test F disease control rating
[11] = test system: Sclerotinia sclerotiorum; assay: Test C: cucumber white mold, preventive spray on cucumber seedlings; settings: for Test C disease control rating: 200 ppm; for pest or weed control at 200 ppm: Sclerotinia sclerotiorum, in Cucumis sativus, 168 h, read-out: Test C disease control rating, 200 ppm
[12] = test system: Botrytis cinerea; assay: Test E: tomato botrytis, preventive spray on tomato seedlings
[13] = 100 = 100% disease control, 0 = no control
[14] = 200 ppm, 100 = 100% disease control, 0 = no control
[15] = Puccinia recondita, in Triticum aestivum, 192 h, read-out: Test K disease control rating
[16] = Colletotrichum orbiculare, in Cucumis sativus, 144 h
[17] = Blumeria graminis, in Triticum aestivum, 168 h
[18] = Parastagonospora nodorum, in Triticum aestivum, topical, 168 h
[19] = Waitea circinata, in Agrostis stolonifera, topical, 144 h
[20] = Botrytis cinerea, in Solanum lycopersicum, topical, 72 h, read-out: Test E disease control rating
[21] = 40 ppm (marked *), 100 = 100% disease control, 0 = no control

| Compound | Test D disease control rating [1, 13] [%] | Test C disease control rating [11, 13] [%] | Test A disease control rating [8] [%] | Test F disease control rating [10] [%] | Test D disease control rating [1] [%] | Test J disease control rating ([2]; 200 ppm) [%] | Test K disease control rating ([3]; 200 ppm) [%] | Test B disease control rating ([4]; 200 ppm) [%] | Test I disease control rating [5] [%] | Test L disease control rating ([6]; 200 ppm) [%] | Test H disease control rating ([7]; 200 ppm) [%] | Test G disease control rating ([9]; 200 ppm) [%] | Test C disease control rating [11] [%] | Test E disease control rating ([12]; 200 ppm) [%] | further results |
| --- | --- | --- | --- | --- | --- | --- | --- | --- | --- | --- | --- | --- | --- | --- | --- |
| CCC(C)Cn1c(-c2ccc(F)cc2Cl)c(Cl)nc(-n2cc(Br)c(C)n2)c1=O (racemic) [compound 260] | 0 | 0 | – | – | – | – | – | – | – | – | – | – | – | – | Test J disease control rating [2, 14]: 97%; Test K disease control rating [3, 14]: 80%; Test B disease control rating [4, 14]: 9%; Test I disease control rating [5, 13]: 0%; Test L disease control rating [6, 14]: 50%; Test H disease control rating [7, 14]: 0%; Test A disease control rating [8, 13]: 0%; Test G disease control rating [9, 14]: 0%; Test F disease control rating [10, 13]: 0%; Test E disease control rating [12, 14]: 99% |
| CCC(C)Cn1c(-c2ccc(F)cc2Cl)c(Cl)nc(-n2ccc(C(OC)OC)n2)c1=O (racemic) [compound 261] | 40 | 83 | – | – | – | – | – | – | – | – | – | – | – | – | Test J disease control rating [2, 14]: 100%; Test K disease control rating [3, 14]: 100%; Test B disease control rating [4, 14]: 100%; Test I disease control rating [5, 13]: 0%; Test L disease control rating [6, 14]: 98%; Test H disease control rating [7, 14]: 99%; Test A disease control rating [8, 13]: 0%; Test G disease control rating [9, 14]: 0%; Test F disease control rating [10, 13]: 0%; Test E disease control rating [12, 14]: 100% |
| CC(C)Cn1c(-c2c(F)cccc2F)c(Cl)nc(-c2ccccn2)c1=O [Compound 2, 5-Chloro-6-(2,6-difluorophenyl)-1-(2-methylpropyl)-3-(2-pyridinyl)-2(1H)-pyrazinone] | – | – | – | – | – | – | – | – | – | – | – | – | – | – | pest or weed control at 200 ppm [1]: 77%; pest or weed control at 200 ppm ([2]; Zymoseptoria tritici, 528 h, 200 ppm, read-out: Test J disease control rating): 99%; pest or weed control at 200 ppm [3, 15]: 100%; pest or weed control at 200 ppm [4, 16]: 100%; pest or weed control at 200 ppm [5]: 97%; pest or weed control at 200 ppm [6, 17]: 100%; pest or weed control at 200 ppm [7, 18]: 100%; pest or weed control at 200 ppm [8]: 38%; pest or weed control at 200 ppm [9, 19]: 100%; pest or weed control at 200 ppm [10]: 0%; pest or weed control at 200 ppm [11]: 97%; pest or weed control at 200 ppm [12, 20]: 100% |
| CC(C)Cn1c(-c2ccc(F)cc2Cl)c(Cl)nc(-n2cccn2)c1=O [Compound 53, 5-Chloro-6-(2-chloro-4-fluorophenyl)-1-(2-methylpropyl)-3-(1H-pyrazol-1-yl)-2(1H)-pyrazinone] | – | – | 0 | 0 | – | – | – | – | – | – | – | – | – | – | pest or weed control at 200 ppm [1]: 0%; Test J disease control rating ([2]; 40 ppm (*)): 100* %; pest or weed control at 200 ppm [3, 15]: 100%; pest or weed control at 200 ppm [4, 16]: 100%; pest or weed control at 200 ppm [5]: 90%; pest or weed control at 200 ppm [6, 17]: 99%; pest or weed control at 200 ppm [7, 18]: 100%; pest or weed control at 200 ppm [9, 19]: 82%; pest or weed control at 200 ppm [11]: 99%; pest or weed control at 200 ppm [12, 20]: 100% |
| CC(C)Cn1c(-c2ccc(F)cc2Cl)c(Cl)nc(-n2cccn2)c1=O [Compound 302, 5-Chloro-6-(2-chloro-4-fluorophenyl)-1-(2-methylpropyl)-3-(1H-pyrazol-1-yl)-2(1H)-pyrazinone] | 0 | 60 | – | – | – | – | – | – | – | – | – | – | – | – | pest or weed control at 40 ppm ([2]; Zymoseptoria tritici, 528 h, 40 ppm (marked *), 100 = 100% disease control, 0 = no control, read-out: Test J disease control rating): 100%; pest or weed control at 40 ppm [3, 15]: 100%; pest or weed control at 40 ppm ([4]; Colletotrichum orbiculare, in Cucumis sativus, 144 h, read-out: Test B disease control rating, 40 ppm (marked *), 100 = 100% disease control, 0 = no control): 98%; pest or weed control at 200 ppm [5, 13]: 0%; pest or weed control at 40 ppm ([6]; Blumeria graminis, in Triticum aestivum, 168 h, read-out: Test L disease control rating, 40 ppm (marked *), 100 = 100% disease control, 0 = no control): 98%; pest or weed control at 40 ppm ([7]; Parastagonospora nodorum, in Triticum aestivum, topical, 168 h, read-out: Test H disease control rating, 40 ppm (marked *), 100 = 100% disease control, 0 = no control): 99%; pest or weed control at 200 ppm [8]: 0%; pest or weed control at 40 ppm ([9]; Waitea circinata, in Agrostis stolonifera, topical, 144 h, read-out: Test G disease control rating, 40 ppm (marked *), 100 = 100% disease control, 0 = no control): 94%; pest or weed control at 200 ppm [10]: 0%; pest or weed control at 40 ppm [12, 20]: 100% |
| CC(C)Cn1c(-c2ccc(F)cc2Cl)c(Cl)nc(-n2cccn2)c1=O [Compound 303, 5-Chloro-6-(2-chloro-4-fluorophenyl)-1-(2-methylpropyl)-3-(1H-pyrazol-1-yl)-2(1H)-pyrazinone] | 58 | 94 | – | – | – | – | – | – | – | – | – | – | – | – | Test J disease control rating [2, 21]: 100* %; Test K disease control rating [3, 21]: 100* %; Test B disease control rating [4, 21]: 100* %; Test I disease control rating [5, 13]: 0%; Test L disease control rating [6, 21]: 100* %; Test H disease control rating [7, 21]: 100* %; Test A disease control rating [8, 13]: 0%; Test G disease control rating [9, 21]: 100* %; Test F disease control rating [10, 13]: 0%; Test E disease control rating [12, 21]: 100* % |
| CC(C)Cn1c(-c2c(F)cc(F)cc2F)c(Cl)nc(-n2cccn2)c1=O [compound 7] | – | – | 51 | 0 | 88 | 100 | 100 | 100 | 99 | 100 | 100 | 95 | 95 | 100 | – |
| O=c1c(-n2cccn2)nc(Cl)c(-c2c(F)cccc2F)n1CC1CC1 [compound 18] | – | – | 0 | 0 | 98 | 100 | 100 | 100 | 0 | 100 | 100 | 100 | 99 | 100 | – |
| CCC(C)Cn1c(-c2c(F)cc(F)cc2F)c(Cl)nc(-n2cccn2)c1=O (stereo not drawn) [compound 19] | – | – | 0 | 27 | 46 | 100 | 100 | 100 | 90 | 100 | 100 | 100 | 98 | 100 | – |
| CC(C)Cn1c(-c2ccc(Cl)cc2)c(Cl)nc(-n2cncn2)c1=O [compound 23] | – | – | 0 | 0 | 0 | 98 | 68 | 21 | 68 | 0 | 98 | 33 | 0 | 99 | – |
| Cc1nc(C)n(-c2nc(Cl)c(-c3ccc(Cl)cc3)n(CC(C)C)c2=O)n1 [compound 24] | – | – | 0 | 0 | 5 | 80 | 0 | 0 | 0 | 0 | 0 | 0 | 0 | 0 | – |
| CC(C)Cn1c(-c2c(Cl)cccc2Cl)c(Cl)nc(-n2cccn2)c1=O [compound 43] | – | – | 0 | 0 | 0 | – | 100 | 99 | 0 | 96 | 100 | 92 | 94 | 100 | Test J disease control rating ([2]; 40 ppm (*)): 100* % |
| CC(C)Cn1c(-c2ccc(Cl)cc2F)c(Cl)nc(-n2cccn2)c1=O [compound 45] | – | – | 0 | 0 | 0 | – | 100 | 100 | 82 | 85 | 100 | 26 | 85 | 100 | Test J disease control rating ([2]; 40 ppm (*)): 100* % |

— patent US20080194585A1, “Fungicidal Pyrazine Derivatives” (priority 2005, published 2008)
